In the experiment the test system is E. Coli B. As to the kind of experiment: Antimicrobial sensitivity test by resistance signature (pulsed-voltage sampling). As to conditions: 0.9 mL of 10^3 CFU/mL E. Coli B in LB Broth + 0.1 mL antibiotic, room temperature; control slope remains negative; FIGS. 7A-7D. The experiment is classed as cell-based. Here is the method:
FIGS. 7A-7D depict signatures of microbial sample of 0.9 mL of a concentration of 10^3 CFU/mL of two-hour E. Coli B treated with 0.1 mL of antibiotics or antimicrobials and control samples in the absence thereof. What is common to all FIGS. 7A-7D is the slope for signatures with antibiotics or antimicrobials become positive, i.e., the resistance of the microbial sample increases, upon addition of the antibiotic or antimicrobial. The slope of the control samples remains negative.
In further detail, a difference in the degree of the slope change for the signature can be observed. Such differences are due to the type of antibiotic or antimicrobial, and its mechanism of action. For example, sulfamethoxazole, FIG. 7C, causes inhibition of DNA synthesis in the cell, thereby aiming essential cell functions. In contrast, azithromycin, FIG. 7B, inhibits […] in a bacterium, thereby acting on latent cell functions.
An overnight bacterial culture of E. coli B with a concentration of around 10^9 cells which had attained room temperature were diluted using LB Broth which had also attained room temperature to a final concentration of 10^3 cells. 0.9 ml of this solution was then placed into one sensor well which was connected to lead #1 of a reader unit. An additional 0.9 ml of the bacteria was placed into a second sensor well which was connected to lead #2 of a reader unit. […]

Turning to `Cc1cc(NS(=O)(=O)c2ccc(N)cc2)no1` [sulfamethoxazole], the “slope of the resistance signature upon addition of the antibiotic or antimicrobial” value is “steeper than for azithromycin”.

The values are drawn from patent US20130183459A1, “DEVICE AND METHOD FOR I[…] AND COUNTING MICROBES AND DETERMINING ANTIMICROBIAL SENSITIVITY” (priority 2011, published 2013).
